Assay results reported in publication PMC7565984, “A Phosphorylation-Induced Switch in the Nuclear Localization Sequence of the Intrinsically Disordered NUPR1 Hampers Binding to Importin” (Biomolecules, 2020).
Where two headings read alike, the source gives them in different places. Where a SMILES comes first, the peptide text is derived from it. [ ]: non-standard residue; d: D form. pT = C[C@@H](OP(=O)(O)O)[C@H](N)C(=O)O

Legend:
[1] = molecular target: T1, human importin α3 (Impα3) (Homo sapiens, UniProt O00629); experiment: ITC binding of NLS-NUPR1 peptides / NUPR1 to Impα3; conditions: for ΔH (binding enthalpy), Impα3: absolute error 0.5 kcal/mol; for −TΔS (entropic contribution), Impα3: calculated from Kd and ΔH, absolute error 0.7 kcal/mol
T1 construct: although the IBB region maintains its independence within the whole Impα3 in terms of conformation; His-tag (N); made in house; host or cells: Escherichia coli BL21 (DE3)
T1 sequence (O00629 1-521): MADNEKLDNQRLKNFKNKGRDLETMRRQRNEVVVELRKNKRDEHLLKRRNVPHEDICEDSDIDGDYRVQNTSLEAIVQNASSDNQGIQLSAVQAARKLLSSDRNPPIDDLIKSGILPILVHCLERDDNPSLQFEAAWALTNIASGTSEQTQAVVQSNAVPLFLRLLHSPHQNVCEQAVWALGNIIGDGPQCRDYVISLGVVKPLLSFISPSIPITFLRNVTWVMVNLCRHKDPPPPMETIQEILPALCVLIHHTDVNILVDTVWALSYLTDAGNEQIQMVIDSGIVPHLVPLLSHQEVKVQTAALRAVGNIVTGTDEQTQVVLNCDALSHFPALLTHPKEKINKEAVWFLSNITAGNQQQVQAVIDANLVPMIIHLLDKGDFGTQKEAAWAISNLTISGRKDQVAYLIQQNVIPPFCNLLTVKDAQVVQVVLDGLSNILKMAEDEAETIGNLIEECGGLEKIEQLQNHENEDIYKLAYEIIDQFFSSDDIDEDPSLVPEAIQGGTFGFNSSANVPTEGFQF
Protocol: (§1) The experimental set-up and data processing of ITC experiments has been described previously. Calorimetric titrations, performed in an Auto-iTC200 calorimeter (MicroCal, Malvern-Panalytical, Malvern, UK) consisted of series of 19 2-μL injections, with 150 s time spacing and a 750-rpm stirring speed. Impα3 or ΔImpα3 (at 10–20 μM) was loaded into the calorimetric cell and NLS-NUPR1 peptides in the syringe (150–300 μM); all solutions were prepared in buffer Tris 50 mM, pH 8. […] The binding affinity (association constant) and the binding enthalpy were estimated through a least-squares nonlinear regression data analysis, from which the Gibbs energy and the entropic contribution to the binding were calculated using well-known thermodynamic relationships. Since the binding stoichiometry is constrained by the model, the parameter n provides a fraction of the active or binding competent protein. Experiments for each peptide and importin species were performed, at least, in duplicates.

[2] = Translational diffusion by NMR DOSY (hydrodynamic properties); assay type: physicochemical; conditions: for D, translational diffusion coefficient: 283 K, pH 7.2, 50-mM deuterated Tris, 100% D2O, peptide 120 μM; for Rh, hydrodynamic radius from D: from the translational diffusion coefficient of dioxane (Rh = 2.12 Å) added to each sample
Protocol: Concentrations of peptides in all DOSY experiments were 120 μM, and 128 scans, where the gradient strength was varied, were acquired for each curve. Translational self-diffusion measurements were performed with the pulsed gradient spin-echo sequence in the presence of 100% D2O. Experimental details have been described elsewhere. Briefly, the gradient strength was varied in sixteen linear steps between 2% and 95% of the total power of the gradient coil. The gradient strength was previously calibrated by using the value of the translational diffusion coefficient, D, for the residual proton water line in a sample containing 100% D2O in a 5-mm tube [34]. In our experiments for each peptide, the duration of the gradient was 2.25 ms, the time between the two pulse gradients in the pulse sequence was set to 200 ms, and the recovery delay between the bipolar gradients was set to 100 μs. The methyl groups with signals between 1.0 and 0.80 ppm were used for integration. Fitting of the exponential curves obtained from experimental data was carried out with KaleidaGraph (Synergy Software, Version 3.5), as described. A final concentration of 1% of dioxane, which was assumed to have a hydrodynamic radius Rh = 2.12 Å [34], was added to the solutions of each of the peptides to have a comparison for estimating their sizes.

[3] = molecular target: T2, ΔImpα3 (importin α3 without the IBB domain, residues 64-521) (Homo sapiens, UniProt O00629); experiment: ITC binding of NLS-NUPR1 peptides / NUPR1 to ΔImpα3; conditions: for ΔH (binding enthalpy), ΔImpα3: absolute error 0.5 kcal/mol; for −TΔS (entropic contribution), ΔImpα3: calculated from Kd and ΔH, absolute error 0.7 kcal/mol
T2 construct: The His-tagged ΔImpα3 (residues 64-521) was obtained from BL21 (DE3) cells as described; His-tag; made in house; host or cells: Escherichia coli BL21 (DE3)
T2 sequence (O00629 64-521): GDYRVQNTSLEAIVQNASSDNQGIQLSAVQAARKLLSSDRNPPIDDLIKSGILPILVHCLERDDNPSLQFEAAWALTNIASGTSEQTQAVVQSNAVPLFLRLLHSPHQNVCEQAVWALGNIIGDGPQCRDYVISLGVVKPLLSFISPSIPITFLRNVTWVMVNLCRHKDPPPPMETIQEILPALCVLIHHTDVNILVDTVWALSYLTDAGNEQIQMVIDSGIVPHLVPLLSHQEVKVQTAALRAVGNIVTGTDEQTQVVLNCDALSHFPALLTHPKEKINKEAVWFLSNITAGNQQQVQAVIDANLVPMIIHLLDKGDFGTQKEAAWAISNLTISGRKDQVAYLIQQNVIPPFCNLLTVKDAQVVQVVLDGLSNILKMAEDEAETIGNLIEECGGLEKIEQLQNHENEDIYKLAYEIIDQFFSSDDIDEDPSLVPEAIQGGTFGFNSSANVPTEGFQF
Protocol: as §1

[4] = molecular target: T1, human importin α3 (Impα3); conditions: ITC, shown in Figure S4 for comparison; previously measured; read-out: Kd (dissociation constant) of intact NUPR1 for Impα3; cited from earlier work
Description: Furthermore, we tried to dissect the affinity of the NLS region of NUPR1 for Impα3 by using a “divide and conquer” approach with the peptides comprising the region. The interaction between full-length NUPR1 and its mutants with Impα3 and ΔImpα3 was the focus of this study, but instead, we emplo ... || In this work, we tried first to find out whether the theoretically predicted NLS region of NUPR1 was capable of binding in isolation to Impα3. Second, we tried to elucidate, for the first time, the molecular bases behind the binding of an NLS region of an IDP to an importin. […] These findings allow us to draw several conclusions. […] However, t ...

[5] = molecular target: T3, truncated importin α3 without the IBB domain (residues 64-521) (human, UniProt O00629 64-521); experiment: ITC; intact NUPR1 with ΔImpα3; conditions of this titration are not told (Figure S4); conditions: both partners purified
T3 construct: human importin α3 (KPNA4) without the IBB domain, residues 64-521; also called ΔImpα3; ΔImportin
T3 sequence (looked up): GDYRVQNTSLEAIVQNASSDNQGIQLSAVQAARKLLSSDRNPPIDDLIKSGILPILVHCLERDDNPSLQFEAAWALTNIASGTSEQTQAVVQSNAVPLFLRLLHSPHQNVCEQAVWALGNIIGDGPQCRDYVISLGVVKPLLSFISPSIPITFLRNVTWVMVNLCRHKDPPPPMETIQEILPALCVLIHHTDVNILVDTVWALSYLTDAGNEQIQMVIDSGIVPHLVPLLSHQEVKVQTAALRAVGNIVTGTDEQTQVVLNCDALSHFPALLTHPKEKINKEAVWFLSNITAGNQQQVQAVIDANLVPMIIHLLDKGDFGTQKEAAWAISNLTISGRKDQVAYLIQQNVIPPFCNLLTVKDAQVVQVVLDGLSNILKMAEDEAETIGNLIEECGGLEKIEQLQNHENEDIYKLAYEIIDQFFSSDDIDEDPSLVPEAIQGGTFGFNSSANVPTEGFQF

Row | Molecule | ΔH (binding enthalpy), Impα3 ([1]; ITC, 298 K, Tris 50 mM pH 8) | −TΔS (entropic contribution), Impα3 ([1]; ITC, 298 K, Tris 50 mM pH 8) | D, translational diffusion coefficient [2] | Rh, hydrodynamic radius from D [2] | ΔH (binding enthalpy), ΔImpα3 ([3]; ITC, 298 K, Tris 50 mM pH 8) | −TΔS (entropic contribution), ΔImpα3 ([3]; ITC, 298 K, Tris 50 mM pH 8) | Kd ([1]; ITC, 298 K, Tris 50 mM pH 8, importin 10–20 μM in cell, peptide 150–300 μM in syringe, 1:1 model, at least duplicates, relative error 30%, read-out: Kd (dissociation constant), Impα3) | Experimental binding free energy, Impα3 ([1]; from ITC, Table 2, 298 K) | Experimental binding free energy, ΔImpα3 ([3]; from ITC, Table 2, 298 K) | Kd [4] | Kd [5] | Kd ([3]; ITC, 298 K, Tris 50 mM pH 8, importin 10–20 μM in cell, peptide 150–300 μM in syringe, 1:1 model, at least duplicates, relative error 30%, read-out: Kd (dissociation constant), ΔImpα3)
1 | CC(=O)N[C@@H](Cc1ccc(O)cc1)C(=O)N[C@H](C(=O)N[C@@H](CC(N)=O)C(=O)N[C@@H](CCCNC(=N)N)C(=O)N1CCC[C@H]1C(=O)N[C@@H](CO)C(=O)N1CCC[C@H]1C(=O)NCC(=O)NCC(=O)N[C@@H](Cc1c[nH]cn1)C(=O)N[C@@H](CCC(=O)O)C(=O)N[C@@H](CCCNC(=N)N)C(=O)N[C@@H](CCCCN)C(=O)N[C@@H](CC(C)C)C(=O)N[C@H](C(=O)N[C@@H](CCC(=O)O)C(=O)N[C@@H](CCCCN)C(=O)N[C@@H](CC(C)C)C(=O)N[C@@H](CCC(N)=O)C(=O)N[C@@H](CC(N)=O)C(=O)N[C@@H](CO)C(=O)N[C@@H](CCC(=O)O)C(N)=O)C(C)C)[C@@H](C)O [T68E] (Ac-YTNRPSPGGHERKLVEKLQNSE-NH2) | -11.1 kcal/mol | 4.7 kcal/mol | 2.17 ± 0.06 cm^2 s^−1 × 10^6 | 10 ± 1 Å | -17.5 kcal/mol | 10.8 kcal/mol |  |  |  |  |  | 
2 | CC(=O)N[C@@H](Cc1ccc(O)cc1)C(=O)N[C@H](C(=O)N[C@@H](CC(N)=O)C(=O)N[C@@H](CCCNC(=N)N)C(=O)N1CCC[C@H]1C(=O)N[C@@H](CO)C(=O)N1CCC[C@H]1C(=O)NCC(=O)NCC(=O)N[C@@H](Cc1c[nH]cn1)C(=O)N[C@@H](CCC(=O)O)C(=O)N[C@@H](CCCNC(=N)N)C(=O)N[C@@H](CCCCN)C(=O)N[C@@H](CC(C)C)C(=O)N[C@H](C(=O)N[C@H](C(=O)N[C@@H](CCCCN)C(=O)N[C@@H](CC(C)C)C(=O)N[C@@H](CCC(N)=O)C(=O)N[C@@H](CC(N)=O)C(=O)N[C@@H](CO)C(=O)N[C@@H](CCC(=O)O)C(N)=O)[C@@H](C)OP(=O)(O)O)C(C)C)[C@@H](C)O [pT68] (Ac-YTNRPSPGGHERKLV[pT]KLQNSE-NH2) | -14.8 kcal/mol |  | 1.89 ± 0.08 cm^2 s^−1 × 10^6 | 11 ± 1 Å | -28.2 kcal/mol | 22.0 kcal/mol | 27000 nM |  |  |  |  | 
3 | CC(=O)N[C@@H](Cc1ccc(O)cc1)C(=O)N[C@H](C(=O)N[C@@H](CC(N)=O)C(=O)N[C@@H](CCCNC(=N)N)C(=O)N1CCC[C@H]1C(=O)N[C@@H](CO)C(=O)N1CCC[C@H]1C(=O)NCC(=O)NCC(=O)N[C@@H](Cc1c[nH]cn1)C(=O)N[C@@H](CCC(=O)O)C(=O)N[C@@H](CCCNC(=N)N)C(=O)N[C@@H](CCCCN)C(=O)N[C@@H](CC(C)C)C(=O)N[C@H](C(=O)N[C@H](C(=O)N[C@@H](CCCCN)C(=O)N[C@@H](CC(C)C)C(=O)N[C@@H](CCC(N)=O)C(=O)N[C@@H](CC(N)=O)C(=O)N[C@@H](CO)C(=O)N[C@@H](CCC(=O)O)C(N)=O)[C@@H](C)O)C(C)C)[C@@H](C)O [wt] (Ac-YTNRPSPGGHERKLVTKLQNSE-NH2) | 0.8 kcal/mol | -8.7 kcal/mol | 1.85 ± 0.04 cm^2 s^−1 × 10^6 | 11 ± 1 Å | -3.7 kcal/mol | -4.5 kcal/mol |  | -7.87 kcal/mol | -8.22 kcal/mol |  |  | 
4 | intact NUPR1 (full-length, 82 residues) (natural protein, UniProt O60356 1-82, looked up, NUPR1, UniProtKB O60356, 82 residues long (8 kDa), intact protein; also called full-length NUPR1; nuclear protein 1) MATFPPATSAPQQPPGPEDEDSSLDESDLYSLAHSYLGGGGRKGRTKREAAANTNRPSPGGHERKLVTKLQNSERKKRGARR |  |  |  |  |  |  |  |  |  | 1400 nM | 400 nM | 440 nM
